# Where two headings read alike, the source gives them in different places.
# How the values were obtained:
# male SD rats = assay: Single oral dose food intake study, 24-hour observational period (Example 6, first in vivo study); design: species or system rat
# Description: This example compares efficacy of DA versus DB in food inhibition and body weight control. As a background, according to Avau et al., Sci. Rep. […] In our first in vivo study, 45 male SD rats (purchased from Envigo at 8-10 weeks of age) were divided into three groups (15 in each group), which were administered a single oral dose of vehicle (distilled water), 26.8 mg/kg of DB, or 23.1 mg/kg of DA respectively, with a 24-hour observational period, to compare the efficacy of DB versus DA in reducing food intake. Table 4. Mean cumulative food intake during 24-h observational period
# rodent obesity models = conditions: cited from earlier work
# [1] = test system: human TAS2Rs (TAS2R 4, 8, 10, 13, 39, 43, 46, and 47); conditions: cited from earlier work
# healthy volunteers = conditions: intragastric administration, cited from earlier work; for nutrient volume tolerance / satiation: 1 μmol/kg DB
# normal C57BL/6 mice = conditions: oral 60 μmol/kg (26.8 mg/kg); cited from earlier work
# [2] = Maximum tolerated dose / LD50 study, single oral gavage, 14-day observational period (Example 7); conditions: both, Sprague Dawley, rat, in vivo
# Description: (§1) The drugs were administered to Sprague Dawley rats with a 14-day observational period. Twenty-four Male Sprague Dawley (SD) rats and 24 female SD rats were purchased from Envigo at 8-10 weeks of age. The DA group had four dose levels (120, 360, 1000, and 2000 mg/kg, single administration by oral gavage), 3 rats per sex, 6 animals in total per dose level; and the DB group: four dose levels (120, 360, 1000, and 2000 mg/kg, single administration by oral gavage), 3 rats per sex, 6 animals in total per dose level. The estimated median lethal dose (LD50) was determined by a nonlinear regression [model: Y=100/(1+10^(LogEC50-X)), Hill slope=1.0) to calculate LD50.
# Sprague Dawley rats = assay: in vivo; conditions: rat, po; for Mortality rate: both, 14 day
# Description: as §1
# male C57BL/6N DIO mice = assay: 56-day BID treatment, food consumption and body weight in DIO mice (Example 6, second in vivo study); design: species or system mouse
# Description: In a second in vivo study, 45 male C57BL/6N DIO mice (purchased from Envigo at 18 weeks of age, fed with high-fat diet) were divided into three groups (15 in each group), which were orally administered vehicle (distilled water), 26.8 mg/kg of DB, or 23.1 mg/kg of DA respectively, twice daily (BID), with a 56-day treatment period to compare the efficacy of DB versus DA in food intake reduction and body weight control. Briefly, once weekly, the food weight for each cage was recorded at 0 hour and then 24 hours later, permitting calculation of food consumption for that 24-hour interval. In addition, starting from Day 0, the mice were weighed three times weekly (every 2-3 days).
compound,measurement,setting,value
"CC[N+](CC)(CC(=O)Nc1c(C)cccc1C)Cc1ccccc1.O=C([O-])c1ccccc1 [DB, benzyl-[2-(2,6-dimethylanilino)-2-oxoethyl]-diethylazanium benzoate]",Mean cumulative food intake 0-2 h,"male SD rats; single oral dose (DA 23.1 mg/kg, DB 26.8 mg/kg), 0-2 h, N = 15",4.8 gram
same,Mean cumulative food intake 0-4 h,"male SD rats; single oral dose (DA 23.1 mg/kg, DB 26.8 mg/kg), 0-4 h, N = 15",7.7 gram
same,Mean cumulative food intake 0-6 h,"male SD rats; single oral dose (DA 23.1 mg/kg, DB 26.8 mg/kg), 0-6 h, N = 15",10.9 gram
same,Mean cumulative food intake 0-8 h,"male SD rats; single oral dose (DA 23.1 mg/kg, DB 26.8 mg/kg), 0-8 h, N = 15",13.8 gram
same,Mean cumulative food intake 0-24 h,"male SD rats; single oral dose (DA 23.1 mg/kg, DB 26.8 mg/kg), 0-24 h, N = 15",20.6 gram
same,cumulative food intake as compared with vehicle,"male SD rats; single oral dose, all indicated time intervals",reduced cumulative food intake during all the indicated time intervals as compared with vehicle
same,food intake,rodent obesity models,suppressed food intake
same,weight gain,rodent obesity models,inhibited weight gain
same,activation of human TAS2Rs,[1],activates to varying degrees eight human TAS2Rs
same,nutrient volume tolerance,healthy volunteers; listed as Denatonium benzoate,reduced nutrient volume tolerance
same,satiation,healthy volunteers; listed as Denatonium benzoate,increased satiation post meal
same,nutrient volume tolerance,healthy volunteers,decreased nutrient volume tolerance
same,satiation,healthy volunteers,increased satiation
same,hunger ratings,healthy volunteers,decreased hunger ratings
same,inter-digestive gastric motility,healthy volunteers,attenuated inter-digestive gastric motility
same,gastric emptying rate,normal C57BL/6 mice,significantly inhibited gastric emptying rate
same,LD50 at 14 day,[2],784 mg/kg
same,MTD at 14 day,[2],360 mg/kg
same,Mortality rate,Sprague Dawley rats; 120 mg/kg,0%
same,Mortality rate,Sprague Dawley rats; 360 mg/kg,0%
same,Mortality rate,Sprague Dawley rats; 1000 mg/kg,66.7%
same,Mortality rate,Sprague Dawley rats; 2000 mg/kg,100%
same,No. of animals died within 24 h post dosing,"Sprague Dawley rats; female, 120 mg/kg",0
same,No. of animals died within 24 h post dosing,"Sprague Dawley rats; female, 360 mg/kg",0
same,No. of animals died within 24 h post dosing,"Sprague Dawley rats; female, 1000 mg/kg",3
same,No. of animals died within 24 h post dosing,"Sprague Dawley rats; female, 2000 mg/kg",3
same,No. of animals died within 24 h post dosing,"Sprague Dawley rats; male, 120 mg/kg",0
same,No. of animals died within 24 h post dosing,"Sprague Dawley rats; male, 360 mg/kg",0
same,No. of animals died within 24 h post dosing,"Sprague Dawley rats; male, 1000 mg/kg",1
same,No. of animals died within 24 h post dosing,"Sprague Dawley rats; male, 2000 mg/kg",3
same,body weight gain as compared to vehicle treatment,"male C57BL/6N DIO mice; DIO mice on high-fat diet, 26.8 mg/kg DB or 23.1 mg/kg DA BID",less body weight gain as compared to vehicle treatment
same,"Mean food consumption per animal for 24-h interval, Day 0","male C57BL/6N DIO mice; DIO mice, BID oral (DA 23.1 mg/kg, DB 26.8 mg/kg), Day 0",2.5 gram
same,"Mean food consumption per animal for 24-h interval, Day 7","male C57BL/6N DIO mice; DIO mice, BID oral (DA 23.1 mg/kg, DB 26.8 mg/kg), Day 7",1.8 gram
same,"Mean food consumption per animal for 24-h interval, Day 14","male C57BL/6N DIO mice; DIO mice, BID oral (DA 23.1 mg/kg, DB 26.8 mg/kg), Day 14",2.6 gram
same,"Mean food consumption per animal for 24-h interval, Day 21","male C57BL/6N DIO mice; DIO mice, BID oral (DA 23.1 mg/kg, DB 26.8 mg/kg), Day 21",2.9 gram
same,"Mean food consumption per animal for 24-h interval, Day 28","male C57BL/6N DIO mice; DIO mice, BID oral (DA 23.1 mg/kg, DB 26.8 mg/kg), Day 28",2.5 gram
same,"Mean food consumption per animal for 24-h interval, Day 35","male C57BL/6N DIO mice; DIO mice, BID oral (DA 23.1 mg/kg, DB 26.8 mg/kg), Day 35",2.5 gram
same,"Mean food consumption per animal for 24-h interval, Day 42","male C57BL/6N DIO mice; DIO mice, BID oral (DA 23.1 mg/kg, DB 26.8 mg/kg), Day 42",2.0 gram
same,"Mean food consumption per animal for 24-h interval, Day 49","male C57BL/6N DIO mice; DIO mice, BID oral (DA 23.1 mg/kg, DB 26.8 mg/kg), Day 49",2.4 gram
same,"Mean food consumption per animal for 24-h interval, Day 56","male C57BL/6N DIO mice; DIO mice, BID oral (DA 23.1 mg/kg, DB 26.8 mg/kg), Day 56",2.5 gram
same,"Mean normalized body weight (% of baseline), study day 0","male C57BL/6N DIO mice; DIO mice, BID oral (DA 23.1 mg/kg, DB 26.8 mg/kg), day 0",100.0 % of baseline
same,"Mean normalized body weight (% of baseline), study day 4","male C57BL/6N DIO mice; DIO mice, BID oral (DA 23.1 mg/kg, DB 26.8 mg/kg), day 4",100.5 % of baseline
same,"Mean normalized body weight (% of baseline), study day 7","male C57BL/6N DIO mice; DIO mice, BID oral (DA 23.1 mg/kg, DB 26.8 mg/kg), day 7",99.7 % of baseline
same,"Mean normalized body weight (% of baseline), study day 9","male C57BL/6N DIO mice; DIO mice, BID oral (DA 23.1 mg/kg, DB 26.8 mg/kg), day 9",99.4 % of baseline
same,"Mean normalized body weight (% of baseline), study day 11","male C57BL/6N DIO mice; DIO mice, BID oral (DA 23.1 mg/kg, DB 26.8 mg/kg), day 11",99.0 % of baseline
same,"Mean normalized body weight (% of baseline), study day 14","male C57BL/6N DIO mice; DIO mice, BID oral (DA 23.1 mg/kg, DB 26.8 mg/kg), day 14",99.3 % of baseline
same,"Mean normalized body weight (% of baseline), study day 16","male C57BL/6N DIO mice; DIO mice, BID oral (DA 23.1 mg/kg, DB 26.8 mg/kg), day 16",98.0 % of baseline
same,"Mean normalized body weight (% of baseline), study day 18","male C57BL/6N DIO mice; DIO mice, BID oral (DA 23.1 mg/kg, DB 26.8 mg/kg), day 18",97.9 % of baseline
same,"Mean normalized body weight (% of baseline), study day 21","male C57BL/6N DIO mice; DIO mice, BID oral (DA 23.1 mg/kg, DB 26.8 mg/kg), day 21",99.5 % of baseline
same,"Mean normalized body weight (% of baseline), study day 23","male C57BL/6N DIO mice; DIO mice, BID oral (DA 23.1 mg/kg, DB 26.8 mg/kg), day 23",100.5 % of baseline
same,"Mean normalized body weight (% of baseline), study day 25","male C57BL/6N DIO mice; DIO mice, BID oral (DA 23.1 mg/kg, DB 26.8 mg/kg), day 25",100.3 % of baseline
same,"Mean normalized body weight (% of baseline), study day 28","male C57BL/6N DIO mice; DIO mice, BID oral (DA 23.1 mg/kg, DB 26.8 mg/kg), day 28",100.2 % of baseline
same,"Mean normalized body weight (% of baseline), study day 30","male C57BL/6N DIO mice; DIO mice, BID oral (DA 23.1 mg/kg, DB 26.8 mg/kg), day 30",100.5 % of baseline
same,"Mean normalized body weight (% of baseline), study day 32","male C57BL/6N DIO mice; DIO mice, BID oral (DA 23.1 mg/kg, DB 26.8 mg/kg), day 32",102.8 % of baseline
same,"Mean normalized body weight (% of baseline), study day 34","male C57BL/6N DIO mice; DIO mice, BID oral (DA 23.1 mg/kg, DB 26.8 mg/kg), day 34",103.6 % of baseline
same,"Mean normalized body weight (% of baseline), study day 36","male C57BL/6N DIO mice; DIO mice, BID oral (DA 23.1 mg/kg, DB 26.8 mg/kg), day 36",104.1 % of baseline
same,"Mean normalized body weight (% of baseline), study day 39","male C57BL/6N DIO mice; DIO mice, BID oral (DA 23.1 mg/kg, DB 26.8 mg/kg), day 39",104.7 % of baseline
same,"Mean normalized body weight (% of baseline), study day 41","male C57BL/6N DIO mice; DIO mice, BID oral (DA 23.1 mg/kg, DB 26.8 mg/kg), day 41",105.3 % of baseline
same,"Mean normalized body weight (% of baseline), study day 46","male C57BL/6N DIO mice; DIO mice, BID oral (DA 23.1 mg/kg, DB 26.8 mg/kg), day 46",106.0 % of baseline
same,"Mean normalized body weight (% of baseline), study day 49","male C57BL/6N DIO mice; DIO mice, BID oral (DA 23.1 mg/kg, DB 26.8 mg/kg), day 49",107.8 % of baseline
same,"Mean normalized body weight (% of baseline), study day 51","male C57BL/6N DIO mice; DIO mice, BID oral (DA 23.1 mg/kg, DB 26.8 mg/kg), day 51",107.8 % of baseline
same,"Mean normalized body weight (% of baseline), study day 53","male C57BL/6N DIO mice; DIO mice, BID oral (DA 23.1 mg/kg, DB 26.8 mg/kg), day 53",107.4 % of baseline
same,"Mean normalized body weight (% of baseline), study day 56","male C57BL/6N DIO mice; DIO mice, BID oral (DA 23.1 mg/kg, DB 26.8 mg/kg), day 56",108.4 % of baseline
same,food consumption compared to vehicle-dosed mice,"male C57BL/6N DIO mice; DIO mice, BID oral, 56-day treatment","Lower food consumption was also seen on Days 0, 7, 28, 35, 42 and 49"

# Reference: patent US20220087960A1, “Oral Pharmaceutical Immediate Release Composition” (Aardvark Therapeutics Inc., priority 2020, published 2022)
